Laboratory results published in ChEMBL document CHEMBL1201862, “PubChem BioAssay data set” (2004).
Activity calls are given as the source filed them.

Key:
Assay type in all cases: functional
Protein RecA = biological target: T1, Protein RecA (Mycobacterium tuberculosis, UniProt P9WHJ3); assay: Fluorescence Cell-Free Homogeneous Dose Retest to Identify Inhibitors of RecA-Intein Splicing Activity. [Related pubchem assays (depositor defined):AID2097, AID2223, AID489010, AID492950]
T1 sequence (P9WHJ3 whole entry): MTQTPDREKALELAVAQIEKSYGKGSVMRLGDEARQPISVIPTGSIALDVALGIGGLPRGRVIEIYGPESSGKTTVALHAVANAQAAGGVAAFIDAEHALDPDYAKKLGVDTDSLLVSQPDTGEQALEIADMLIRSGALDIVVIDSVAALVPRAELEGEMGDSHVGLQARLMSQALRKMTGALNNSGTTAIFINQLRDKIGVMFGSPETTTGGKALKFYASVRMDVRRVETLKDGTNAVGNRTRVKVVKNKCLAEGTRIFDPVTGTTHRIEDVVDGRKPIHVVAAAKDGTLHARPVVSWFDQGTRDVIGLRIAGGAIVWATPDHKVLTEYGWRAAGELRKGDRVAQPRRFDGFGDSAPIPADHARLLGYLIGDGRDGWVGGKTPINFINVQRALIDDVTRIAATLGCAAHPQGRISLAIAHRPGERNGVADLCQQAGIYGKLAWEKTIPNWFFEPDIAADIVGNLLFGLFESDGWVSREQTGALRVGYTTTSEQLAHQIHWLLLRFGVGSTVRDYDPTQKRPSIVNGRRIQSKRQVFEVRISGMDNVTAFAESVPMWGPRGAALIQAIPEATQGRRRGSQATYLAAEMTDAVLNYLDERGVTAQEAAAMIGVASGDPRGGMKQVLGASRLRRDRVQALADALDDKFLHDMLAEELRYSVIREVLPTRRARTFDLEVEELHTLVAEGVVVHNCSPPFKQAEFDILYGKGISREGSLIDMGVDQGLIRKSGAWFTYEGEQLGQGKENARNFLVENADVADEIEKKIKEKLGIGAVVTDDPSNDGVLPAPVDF

[1] = biological target: T2, Replicative DNA helicase DnaB (Mycobacterium tuberculosis, UniProt P9WMR3); assay: DnaB intein splicing inhibitors, dose response, biochemical, cell-free fluorescence (AID 449749)
T2 sequence (P9WMR3 whole entry): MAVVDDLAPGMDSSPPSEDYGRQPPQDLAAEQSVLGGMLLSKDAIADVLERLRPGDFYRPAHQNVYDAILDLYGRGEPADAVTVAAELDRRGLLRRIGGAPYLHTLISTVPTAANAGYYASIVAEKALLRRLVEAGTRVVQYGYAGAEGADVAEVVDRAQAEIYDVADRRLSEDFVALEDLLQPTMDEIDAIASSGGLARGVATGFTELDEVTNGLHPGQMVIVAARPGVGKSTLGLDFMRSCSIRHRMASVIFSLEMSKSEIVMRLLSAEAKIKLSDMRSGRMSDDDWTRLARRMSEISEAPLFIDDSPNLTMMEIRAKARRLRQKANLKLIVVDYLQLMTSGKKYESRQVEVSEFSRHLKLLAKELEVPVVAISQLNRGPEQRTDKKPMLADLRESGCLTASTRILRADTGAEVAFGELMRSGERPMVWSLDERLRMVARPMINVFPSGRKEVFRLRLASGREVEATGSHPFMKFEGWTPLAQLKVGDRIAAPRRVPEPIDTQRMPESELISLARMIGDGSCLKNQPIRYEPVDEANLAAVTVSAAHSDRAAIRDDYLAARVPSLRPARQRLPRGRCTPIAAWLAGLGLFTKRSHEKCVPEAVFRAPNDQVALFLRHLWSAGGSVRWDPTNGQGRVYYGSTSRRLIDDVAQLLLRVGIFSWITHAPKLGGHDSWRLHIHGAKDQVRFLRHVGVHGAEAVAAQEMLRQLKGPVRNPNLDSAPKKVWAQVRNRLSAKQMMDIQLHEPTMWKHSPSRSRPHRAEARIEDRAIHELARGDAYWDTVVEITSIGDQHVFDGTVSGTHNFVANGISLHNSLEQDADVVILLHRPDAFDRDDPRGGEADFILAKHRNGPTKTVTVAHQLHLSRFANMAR

Protein skinhead-1 = biological target: T3, Protein skinhead-1 (Caenorhabditis elegans, UniProt P34707)
T3 sequence (P34707 whole entry): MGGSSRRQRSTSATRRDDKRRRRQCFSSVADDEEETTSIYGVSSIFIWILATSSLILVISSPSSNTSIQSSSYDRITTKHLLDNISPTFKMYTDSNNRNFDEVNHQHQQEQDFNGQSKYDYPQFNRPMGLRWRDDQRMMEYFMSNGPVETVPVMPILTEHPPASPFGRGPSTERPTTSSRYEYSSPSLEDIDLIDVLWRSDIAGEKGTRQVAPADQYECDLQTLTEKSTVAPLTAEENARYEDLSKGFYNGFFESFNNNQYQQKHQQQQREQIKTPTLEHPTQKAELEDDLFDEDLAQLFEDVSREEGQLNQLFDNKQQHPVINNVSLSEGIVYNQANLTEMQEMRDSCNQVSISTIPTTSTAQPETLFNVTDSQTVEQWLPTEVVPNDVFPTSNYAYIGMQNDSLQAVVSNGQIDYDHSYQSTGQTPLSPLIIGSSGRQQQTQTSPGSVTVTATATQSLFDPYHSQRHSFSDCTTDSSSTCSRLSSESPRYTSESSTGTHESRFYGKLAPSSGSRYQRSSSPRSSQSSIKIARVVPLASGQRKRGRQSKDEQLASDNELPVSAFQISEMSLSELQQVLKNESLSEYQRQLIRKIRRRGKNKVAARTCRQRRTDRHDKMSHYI

`CCC(=O)N(C1=C(NC)C(=O)c2ccccc2C1=O)C(C)C` was tested, and the EC50 (Protein RecA) was 9.21 µM (active) and the AC50 [1] was 24.5 µM (active).

For `CC1CC(C)CN(C(=O)c2ccc3c(c2NCCO)C(=O)c2ccccc2C3=O)C1` (stereo not given), the EC50 (Protein RecA) was 20 µM (active), the AC50 [1] was 14.5 µM (active) and the IC50 (Protein skinhead-1) was > 100 µM (inactive).
